From ChEMBL document CHEMBL1201862, “PubChem BioAssay data set” (2004)
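48-hour exposure; five concentrations; linearly interpolated endpoints. GI50: concentration for 50% inhibition of growth.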 The source made the active and inactive calls. Rule as the data show it: active = GI50 up to about 1.1 µM and inactive = higher.

What was measured:
Test in all cases: DTP human tumour cell line panel, 48 h
ACHN = system: ACHN
BT-549 = system: BT-549
DU-145 = system: DU-145
HCC 2998 = system: HCC 2998
HCT-116 = system: HCT-116
HCT-15 = system: HCT-15
HOP-62 = system: HOP-62
HT-29 = system: HT-29
IGROV-1 = system: IGROV-1
K562 = system: K562
LOX IMVI = system: LOX IMVI
Malme-3M = system: Malme-3M
NCI-H226 = system: NCI-H226
NCI/ADR-RES = system: NCI/ADR-RES
RPMI-8226 = system: RPMI-8226
SF-268 = system: SF-268
SK-MEL-28 = system: SK-MEL-28
U-251 = system: U-251
UO-31 = system: UO-31

With O=C1c2sccc2C(=O)c2c(CO)csc21 the GI50 (ACHN) was 3.52 µM (inactive), the GI50 (BT-549) was 3.59 µM (inactive) and the GI50 (DU-145) was 2.66 µM (inactive). The GI50 (HCC 2998) was 3.44 µM (inactive), the GI50 (HCT-116) was 3.04 µM (inactive) and the GI50 (HCT-15) was 2.49 µM. The GI50 (HOP-62) was 4.71 µM (inactive), the GI50 (HT-29) was 3.3 µM (inactive) and the GI50 (IGROV-1) was 4.03 µM (inactive). For the same molecule, the GI50 (K562) was 7.01 µM (inactive), the GI50 (LOX IMVI) was 2.88 µM (inactive) and the GI50 (Malme-3M) was 1.91 µM (inactive). The GI50 (NCI-H226) was 4.82 µM (inactive), the GI50 (NCI/ADR-RES) was 3.63 µM (inactive) and the GI50 (RPMI-8226) was 5.26 µM (inactive). The GI50 (SF-268) was 6.5 µM (inactive), the GI50 (SK-MEL-28) was 7.8 µM (inactive) and the GI50 (U-251) was 6.03 µM (inactive). For the same molecule, the GI50 (UO-31) was 7.76 µM (inactive).
C=C1CC2C[C@H](OS(=O)(=O)c3ccc(C)cc3)C(C1)N2C (some centres undefined) was tested, and the GI50 (BT-549) was > 100 µM (inactive), the GI50 (DU-145) was > 100 µM (inactive) and the GI50 (HCC 2998) was > 100 µM (inactive). The GI50 (HCT-116) was > 100 µM (inactive), the GI50 (HCT-15) was greater than 100 µM and the GI50 (HOP-62) was > 100 µM (inactive). For the same molecule, the GI50 (HT-29) was > 100 µM (inactive), the GI50 (IGROV-1) was > 100 µM (inactive) and the GI50 (K562) was > 100 µM (inactive). For the same molecule, the GI50 (LOX IMVI) was > 100 µM (inactive), the GI50 (Malme-3M) was > 100 µM (inactive) and the GI50 (NCI-H226) was > 100 µM (inactive). For the same molecule, the GI50 (NCI/ADR-RES) was > 100 µM (inactive), the GI50 (RPMI-8226) was > 100 µM (inactive) and the GI50 (SF-268) was > 100 µM (inactive). For the same molecule, the GI50 (SK-MEL-28) was > 100 µM (inactive), the GI50 (U-251) was > 100 µM (inactive) and the GI50 (UO-31) was > 100 µM (inactive).
In the case of O=[N+]([O-])C1(C2([N+](=O)[O-])CCCC2)CCCC1, the GI50 (BT-549) is reported as > 100 µM (inactive), the GI50 (DU-145) is reported as > 100 µM (inactive) and the GI50 (HCC 2998) is reported as > 100 µM (inactive). For the same molecule, the GI50 (HCT-116) was > 100 µM (inactive), the GI50 (HCT-15) was greater than 100 µM and the GI50 (HT-29) was > 100 µM (inactive). The GI50 (IGROV-1) was > 100 µM (inactive), the GI50 (K562) was > 100 µM (inactive) and the GI50 (LOX IMVI) was > 100 µM (inactive). The GI50 (Malme-3M) was > 100 µM (inactive), the GI50 (NCI-H226) was > 100 µM (inactive) and the GI50 (NCI/ADR-RES) was > 100 µM (inactive). The GI50 (RPMI-8226) was > 100 µM (inactive), the GI50 (SF-268) was > 100 µM (inactive) and the GI50 (SK-MEL-28) was > 100 µM (inactive). The GI50 (U-251) was > 100 µM (inactive) and the GI50 (UO-31) was 57.1 µM (inactive).
In the case of COc1ccc(N2C(=O)CC(=O)N(C(=O)CCCCCCCCC(=O)N3C(=O)CC(=O)N(c4ccc(OC)cc4)C3=S)C2=S)cc1, the GI50 (ACHN) is reported as > 100 µM (inactive), the GI50 (BT-549) is reported as 33.9 µM (inactive) and the GI50 (DU-145) is reported as > 100 µM (inactive). For the same molecule, the GI50 (HCC 2998) was > 100 µM (inactive), the GI50 (HCT-116) was > 100 µM (inactive) and the GI50 (HCT-15) was greater than 100 µM. The GI50 (HOP-62) was > 100 µM (inactive), the GI50 (HT-29) was > 100 µM (inactive) and the GI50 (K562) was 44.3 µM (inactive). For the same molecule, the GI50 (LOX IMVI) was 78.3 µM (inactive), the GI50 (Malme-3M) was > 100 µM (inactive) and the GI50 (NCI-H226) was > 100 µM (inactive). For the same molecule, the GI50 (NCI/ADR-RES) was > 100 µM (inactive), the GI50 (RPMI-8226) was 44 µM (inactive) and the GI50 (SF-268) was > 100 µM (inactive). For the same molecule, the GI50 (SK-MEL-28) was > 100 µM (inactive), the GI50 (U-251) was > 100 µM (inactive) and the GI50 (UO-31) was 79.6 µM (inactive).
With N=c1oc2ccccc2cc1-c1nc2ccccc2[nH]1 the GI50 (ACHN) was 16.9 µM (inactive), the GI50 (BT-549) was 27.5 µM (inactive) and the GI50 (DU-145) was 18.4 µM (inactive). The GI50 (HCC 2998) was 71.3 µM (inactive), the GI50 (HCT-116) was 49.1 µM (inactive) and the GI50 (HCT-15) was 31.5 µM. The GI50 (HOP-62) was 53 µM (inactive), the GI50 (HT-29) was 36 µM (inactive) and the GI50 (IGROV-1) was 18.9 µM (inactive). For the same molecule, the GI50 (K562) was 18.9 µM (inactive), the GI50 (LOX IMVI) was 32.5 µM (inactive) and the GI50 (Malme-3M) was 24.9 µM (inactive). For the same molecule, the GI50 (NCI-H226) was > 100 µM (inactive), the GI50 (NCI/ADR-RES) was 22.3 µM (inactive) and the GI50 (RPMI-8226) was 26.3 µM (inactive). The GI50 (SF-268) was 64.9 µM (inactive), the GI50 (SK-MEL-28) was 89.9 µM (inactive) and the GI50 (U-251) was 61.7 µM (inactive). The GI50 (UO-31) was 12.1 µM (inactive).
With CC(=O)NC1=C(NCCCl)C(=O)c2ccccc2C1=O the GI50 (ACHN) was 42.8 µM (inactive), the GI50 (BT-549) was 47.9 µM (inactive) and the GI50 (DU-145) was 30.5 µM (inactive). The GI50 (HCC 2998) was 32.7 µM (inactive), the GI50 (HCT-116) was 20.5 µM (inactive) and the GI50 (HCT-15) was 32.1 µM. For the same molecule, the GI50 (HOP-62) was 64 µM (inactive), the GI50 (HT-29) was 26.4 µM (inactive) and the GI50 (IGROV-1) was 39.8 µM (inactive). For the same molecule, the GI50 (K562) was 27.9 µM (inactive), the GI50 (Malme-3M) was 13.9 µM (inactive) and the GI50 (NCI-H226) was 49.1 µM (inactive). For the same molecule, the GI50 (NCI/ADR-RES) was 29.5 µM (inactive), the GI50 (RPMI-8226) was 40.9 µM (inactive) and the GI50 (SF-268) was 59.8 µM (inactive). For the same molecule, the GI50 (SK-MEL-28) was 72.3 µM (inactive) and the GI50 (U-251) was 39.1 µM (inactive).
O=C1CC(c2ccccc2)C2(C(=O)NC(=S)NC2=O)C(c2ccccc2)C1 (centres undefined) was tested, and the GI50 (ACHN) was > 75 µM (inactive), the GI50 (BT-549) was > 75 µM (inactive) and the GI50 (DU-145) was > 75 µM (inactive). The GI50 (HCC 2998) was > 75 µM (inactive), the GI50 (HCT-116) was > 75 µM (inactive) and the GI50 (HCT-15) was greater than 75 µM. For the same molecule, the GI50 (HOP-62) was > 75 µM (inactive), the GI50 (HT-29) was > 75 µM (inactive) and the GI50 (IGROV-1) was > 75 µM (inactive). The GI50 (K562) was > 75 µM (inactive), the GI50 (LOX IMVI) was > 75 µM (inactive) and the GI50 (Malme-3M) was > 75 µM (inactive). For the same molecule, the GI50 (NCI-H226) was > 75 µM (inactive), the GI50 (NCI/ADR-RES) was > 75 µM (inactive) and the GI50 (RPMI-8226) was 38.7 µM (inactive). For the same molecule, the GI50 (SF-268) was > 75 µM (inactive), the GI50 (SK-MEL-28) was > 75 µM (inactive) and the GI50 (U-251) was > 75 µM (inactive). The GI50 (UO-31) was > 75 µM (inactive).
With O=C(/C=C/C=C/c1ccccc1)c1ccccc1 the GI50 (BT-549) was 18.8 µM (inactive), the GI50 (DU-145) was 17.3 µM (inactive) and the GI50 (HCC 2998) was 17.8 µM (inactive). For the same molecule, the GI50 (HCT-116) was 17.6 µM (inactive), the GI50 (HCT-15) was 12.2 µM and the GI50 (HT-29) was 16.2 µM (inactive). The GI50 (IGROV-1) was 16.9 µM (inactive), the GI50 (K562) was 17.1 µM (inactive) and the GI50 (LOX IMVI) was 15.8 µM (inactive). The GI50 (Malme-3M) was 10 µM (inactive), the GI50 (NCI-H226) was 16.7 µM (inactive) and the GI50 (NCI/ADR-RES) was 13.8 µM (inactive). For the same molecule, the GI50 (RPMI-8226) was 16.1 µM (inactive), the GI50 (SF-268) was 19.3 µM (inactive) and the GI50 (SK-MEL-28) was 17.5 µM (inactive). For the same molecule, the GI50 (U-251) was 14 µM (inactive) and the GI50 (UO-31) was 18.3 µM (inactive).
